Source: US7820646B2, “Cyclized derivatives as Eg-5 inhibitors” (Novartis Vaccines and Diagnostics, Inc., priority 2007, dated 2010)

Assays:
[1] = target: T1, motor domain of human KSP (Eg 5, KNSL1) (Homo sapiens, UniProt P52732); assay: Assay for determining KSP activity (microtubule-stimulated ATPase, Biomol Green); settings: KSP motor domain 45 nM, microtubules 35 μg/mL, 1 hour at RT; read-out: Biochemical Activity IC50
T1 construct: KSP motor protein (i.e., the KSP motor domain); made in house
T1 sequence (P52732 18-359 limits assumed): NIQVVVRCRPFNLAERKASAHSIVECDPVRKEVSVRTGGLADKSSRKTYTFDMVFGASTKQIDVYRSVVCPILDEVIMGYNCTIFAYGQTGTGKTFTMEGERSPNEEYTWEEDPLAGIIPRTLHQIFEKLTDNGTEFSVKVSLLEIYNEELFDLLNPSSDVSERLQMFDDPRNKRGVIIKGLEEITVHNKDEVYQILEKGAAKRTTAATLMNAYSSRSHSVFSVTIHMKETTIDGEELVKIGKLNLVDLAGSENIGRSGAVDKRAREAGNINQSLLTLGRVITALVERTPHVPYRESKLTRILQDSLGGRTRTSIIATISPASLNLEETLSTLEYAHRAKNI
Excerpt: This example provides a representative in vitro assay for determining KSP activity in vitro. Purified microtubules obtained from bovine brain were purchased from Cytoskeleton Inc. (Denver, Colo., USA). The motor domain of human KSP (Eg 5, KNSL1) was cloned, expressed, and purified to greater than 95% homogeneity. Biomol Green was purchased from Affinity Research Products Ltd. (Matford Court, Exeter, Devon, United Kingdom). Microtubules and KSP motor protein (i.e., the KSP motor domain) were diluted in assay buffer (20 mM Tris-HCl (pH 7.5), 1 mM MgCl2, 10 mM DTT and 0.25 mg/mL BSA) to a final concentration of 35 μg/mL microtubules and 45 nM KSP. The microtubule/KSP mixture was then pre-incubated at 37° C. for 10 min to promote the binding of KSP to microtubules.
To each well of the testing plate (384-well plate) containing 1.25 μL of inhibitor or test compound in DMSO (or DMSO only in the case of controls) were added 25 μL of ATP solution (ATP diluted to a concentration of 300 μM in assay buffer) and 25 μL of the above-described microtubule/KSP solution. The plates were incubated at RT for 1 hour. Following incubation, 65 μL of Biomol Green (a malachite green-based dye that detects the release of inorganic phosphate) was added to each well. The plates were incubated for an additional 5-10 minutes then the absorbance at 630 nm was determined using a Victor II plate reader. The amount of absorbance at 630 nm corresponded to the amount of KSP activity in the samples. The IC50 of each inhibitor or test compound was then determined based on the decrease in absorbance at 630 nm at each concentration, via nonlinear regression using either XLFit for Excel or Prism data analysis software by GraphPad Software Inc.

[2] = test system: parental cell line; assay: Inhibition of cellular proliferation in tumor cell lines (CellTiter Glo), KB3.1; format: cell-based; settings: Homo sapiens, KB 3-1; KB3.1, 72 hours of continuous compound exposure; read-out: Cell Base Activity GI50 KB3.1
Experimental: (§1) Cells are plated in 96-well plates at densities of about 500 cells per well of a 96-well plate and are allowed to grow for 24 hours. The cells are then treated with various concentrations of compounds for 72 hours. Then, 100 μl of CellTiter Glo is added. CellTiter Glo is a tetrazolium-based assay using the reagent 3-(4,5-dimethylthiazol-2-yl) 5-(3-carboxymethoxyphenyl)-2-(4-sulfophenyl)-2H-tetrazolium (MTS) (U.S. Pat. No. 5,185,450) (see Promega product catalog #G3580, CellTiter 96 Aqueous One Solution Cell Proliferation Assay). The cells are then incubated in the dark for 30 minutes. The amount of luminescence is determined for each well using a Walloc Trilux plate reader, which correlates with the number of cells per well. The number of viable cells in the wells that receive only DMSO (0.5%) serve as an indication of 0% inhibition, while wells without cells serve as 100% inhibition of cell growth. The compound concentration that results in a 50% growth inhibition (GI50) is determined graphically from sigmoidal dose-response curves of log-transformed dose values versus cell counts (percent of control) at 72 hours of continuous compound exposure.
(§2) The cell lines used are listed below.
(§3) The cell proliferation assay is performed as described above.

[3] = test system: HCT-15 colon carcinoma; assay: Inhibition of cellular proliferation in tumor cell lines (CellTiter Glo), HCT-15; format: cell-based; settings: Homo sapiens; HCT-15, 72 hours of continuous compound exposure; read-out: Cell Base Activity GI50 HCT-15
Experimental: as §1, §2, §3

[4] = test system: HCT-116 colon carcinoma; assay: Inhibition of cellular proliferation in tumor cell lines (CellTiter Glo), HCT-116; format: cell-based; settings: Homo sapiens; HCT-116, 72 hours of continuous compound exposure; read-out: Cell Base Activity GI50 HCT-116
Experimental: as §1, §2, §3

[5] = test system: KB8.5 (KB85 - p-glycoprotein associated multi-drug resistant cell line); assay: Inhibition of cellular proliferation in tumor cell lines (CellTiter Glo), KB8.5; format: cell-based; settings: KB8.5, 72 hours of continuous compound exposure; read-out: Cell Base Activity GI50 KB8.5
Experimental: as §1, §2, §3

| Compound | IC50 [1] [nM] | GI50 [3] [nM] | GI50 [4] [nM] | GI50 [5] [nM] | GI50 [2] [nM] |
| --- | --- | --- | --- | --- | --- |
| CC(C)(C)[C@H](c1nc(-c2ccccc2)cn1Cc1ccccc1)N1C[C@H](CCN)OCC1=O [Compound 11, (6S)-6-(2-aminoethyl)-4-[(1R)-1-(1-benzyl-4-phenyl-1H-imidazol-2-yl)-2,2-dimethylpropyl]morpholin-3-one] | 100 to 1000 | – | – | – | – |
| CC(C)[C@H](c1nc(-c2cccc(Cl)c2)cn1Cc1ccccc1)N1CC(CN)OC1=O (stereo partly drawn) [Compound 3, 5-(aminomethyl)-3-{(1R)-1-[1-benzyl-4-(3-chlorophenyl)-1H-imidazol-2-yl]-2-methylpropyl}-1,3-oxazolidin-2-one] | 100 to 1000 | > 1000 | > 1000 | > 1000 | > 1000 |
| CC(C)(C)[C@H](c1nc(-c2ccccc2)cn1Cc1ccccc1)N1C[C@H](CN)OCC1=O [Compound 6, (6S)-6-(aminomethyl)-4-[(1R)-1-(1-benzyl-4-phenyl-1H-imidazol-2-yl)-2,2-dimethylpropyl]morpholin-3-one] | 100 to 1000 | > 1000 | 100 to 1000 | > 1000 | 100 to 1000 |
| C[C@H]1O[C@H](CN)CN([C@@H](c2nc(-c3cccc(F)c3)cn2Cc2ccccc2)C(C)(C)C)C1=O [Compound 15, (2R,6R)-6-(aminomethyl)-4-{(1R)-1-[1-benzyl-4-(3-fluorophenyl)-1H-imidazol-2-yl]-2,2-dimethylpropyl}-2-methylmorpholin-3-one] | 100 to 1000 | > 1000 | > 1000 | > 1000 | > 1000 |
| CC(C)(C)[C@H](c1nc(-c2ccccc2)cn1Cc1ccccc1)N1C[C@@H](CO)NCCC1=O [Compound 19, (2S)-4-[(1R)-1-(1-benzyl-4-phenyl-1H-imidazol-2-yl)-2,2-dimethylpropyl]-2-(hydroxymethyl)-1,4-diazepan-5-one] | 100 to 1000 | – | – | > 1000 | > 1000 |
| CC(C)[C@H](c1nc(-c2cccc(Cl)c2)cn1Cc1ccccc1)N1C[C@@H](CN)OCC1=O [Compound 8, (6R)-6-(aminomethyl)-4-{(1R)-1-[1-benzyl-4-(3-chlorophenyl)-1H-imidazol-2-yl]-2-methylpropyl}morpholin-3-one] | > 1000 | – | – | – | – |
| CC(C)(C)[C@H](c1nc(-c2ccccc2)cn1Cc1ccccc1)N1C[C@@H](CCN)OCC1=O [Compound 10, (6R)-6-(2-aminoethyl)-4-[(1R)-1-(1-benzyl-4-phenyl-1H-imidazol-2-yl)-2,2-dimethylpropyl]morpholin-3-one] | 100 to 1000 | – | – | – | – |
| CC(C)(C)[C@H](c1nc(-c2ccccc2)cn1Cc1ccccc1)N1C[C@H](CN)COC1=O [Compound 4, (5S)-5-(aminomethyl)-3-[(1R)-1-(1-benzyl-4-phenyl-1H-imidazol-2-yl)-2,2-dimethylpropyl]-1,3-oxazinan-2-one] | 100 to 1000 | – | – | > 1000 | > 1000 |
| CC(C)(C)[C@H](c1nc(-c2ccccc2)cn1Cc1ccccc1)N1C[C@@H](CN)COC1=O [Compound 5, (5R)-5-(aminomethyl)-3-[(1R)-1-(1-benzyl-4-phenyl-1H-imidazol-2-yl)-2,2-dimethylpropyl]-1,3-oxazinan-2-one] | ≤ 100 | – | – | 100 to 1000 | 100 to 1000 |
| CC(C)[C@H](c1nc(-c2cccc(Cl)c2)cn1Cc1ccccc1)N1C[C@H](CCN)OCC1=O [Compound 12, (6S)-6-(2-aminoethyl)-4-{(1R)-1-[1-benzyl-4-(3-chlorophenyl)-1H-imidazol-2-yl]-2-methylpropyl}morpholin-3-one] | > 1000 | – | – | – | – |

Now from value to compound, other results behind:

| IC50 [1] [nM] | GI50 [3] [nM] | GI50 [4] [nM] | GI50 [5] [nM] | Compound | GI50 [2] [nM] |
| --- | --- | --- | --- | --- | --- |
| ≤ 100 | ≤ 100 | ≤ 100 | ≤ 100 | CC(C)(C)[C@H](c1nc(-c2cccc(F)c2)cn1Cc1cccc(F)c1)N1C[C@@H](CN)COCC1=O [Compound 28, (6R)-6-(aminomethyl)-4-{(1R)-1-[1-(3-fluorobenzyl)-4-(3-fluorophenyl)-1H-imidazol-2-yl]-2,2-dimethylpropyl}-1,4-oxazepan-3-one] | ≤ 100 |
| 100 to 1000 | – | – | – | CC(C)(C)[C@H](c1nc(-c2ccccc2)cn1Cc1ccccc1)N1C[C@H](F)CNCC1=O [Compound 31, (6R)-1-[(1R)-1-(1-benzyl-4-phenyl-1H-imidazol-2-yl)-2,2-dimethylpropyl]-6-fluoro-1,4-diazepan-2-one] | – |
| 100 to 1000 | – | – | > 1000 | CC(C)(C)[C@H](c1nc(-c2ccccc2)cn1Cc1ccccc1)N1C[C@@H](F)CNCC1=O [Compound 32, (6S)-1-[(1R)-1-(1-benzyl-4-phenyl-1H-imidazol-2-yl)-2,2-dimethylpropyl]-6-fluoro-1,4-diazepan-2-one] | > 1000 |
| 100 to 1000 | > 1000 | 100 to 1000 | > 1000 | CC(C)(C)[C@H](c1nc(-c2ccccc2)cn1Cc1ccccc1)N1C[C@@H](CN)NCCC1=O [Compound 20, (2R)-2-(aminomethyl)-4-[(1R)-1-(1-benzyl-4-phenyl-1H-imidazol-2-yl)-2,2-dimethylpropyl]-1,4-diazepan-5-one] | 100 to 1000 |
| ≤ 100 | – | – | > 1000 | CC(C)(C)[C@H](c1nc(-c2ccccc2)cn1Cc1ccccc1)N1C[C@@H](CN)N(S(C)(=O)=O)CCC1=O [Compound 21, (2R)-2-(aminomethyl)-4-[(1R)-1-(1-benzyl-4-phenyl-1H-imidazol-2-yl)-2,2-dimethylpropyl]-1-(methylsulfonyl)-1,4-diazepan-5-one] | ≤ 100 |
| ≤ 100 | – | – | 100 to 1000 | CC(C)(C)[C@H](c1nc(-c2ccccc2)cn1Cc1ccccc1)N1C[C@H](CN)COCC1=O [Compound 24, (6S)-6-(aminomethyl)-4-[(1R)-1-(1-benzyl-4-phenyl-1H-imidazol-2-yl)-2,2-dimethylpropyl]-1,4-oxazepan-3-one] | 100 to 1000 |
| ≤ 100 | – | – | – | CC(C)(C)[C@H](c1nc(-c2ccccc2)cn1Cc1ccccc1)N1C[C@@H](CN)CNC(=O)C1=O [Compound 30, (6S)-6-(aminomethyl)-1-[(1R)-1-(1-benzyl-4-phenyl-1H-imidazol-2-yl)-2,2-dimethylpropyl]-1,4-diazepane-2,3-dione] | – |
| ≤ 100 | – | 100 to 1000 | 100 to 1000 | CC(C)(C)[C@H](c1nc(-c2cccc(F)c2)cn1Cc1cc(F)cc(F)c1)N1C[C@@H](CN)COCC1=O [Compound 26, (6R)-6-(aminomethyl)-4-{(1R)-1-[1-(3,5-difluorobenzyl)-4-(3-fluorophenyl)-1H-imidazol-2-yl]-2,2-dimethylpropyl}-1,4-oxazepan-3-one] | 100 to 1000 |
| 100 to 1000 | – | – | > 1000 | CC(C)(C)[C@H](c1nc(-c2ccccc2)cn1Cc1ccccc1)N1C[C@H](CN)OCCC1=O [Compound 22, (2S)-2-(aminomethyl)-4-[(1R)-1-(1-benzyl-4-phenyl-1H-imidazol-2-yl)-2,2-dimethylpropyl]-1,4-oxazepan-5-one] | > 1000 |
